What all share (type): binding
The target of assay [1] is T1, HeLa cell extract proteins (Homo sapiens, UniProt Q05639).
T1 construct: endogenous in cells; host or cells: HeLa cell extract
T1 sequence (Q05639 1-463): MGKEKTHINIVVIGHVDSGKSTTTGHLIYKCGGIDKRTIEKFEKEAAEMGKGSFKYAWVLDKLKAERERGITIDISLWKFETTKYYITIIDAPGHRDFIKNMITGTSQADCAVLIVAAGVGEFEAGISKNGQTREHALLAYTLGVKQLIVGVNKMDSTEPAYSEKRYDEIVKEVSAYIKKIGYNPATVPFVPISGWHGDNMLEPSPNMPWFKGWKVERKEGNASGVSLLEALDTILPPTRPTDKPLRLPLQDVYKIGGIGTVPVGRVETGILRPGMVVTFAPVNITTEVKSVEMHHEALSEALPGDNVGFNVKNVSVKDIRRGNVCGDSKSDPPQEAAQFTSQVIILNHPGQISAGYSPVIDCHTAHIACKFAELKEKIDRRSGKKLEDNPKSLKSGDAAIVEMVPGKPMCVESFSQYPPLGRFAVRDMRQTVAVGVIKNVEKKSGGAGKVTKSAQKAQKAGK
The following applies: protein EEF1A2; HeLa.

Assay [2] concerns the target T2, HeLa cell extract proteins (Homo sapiens, UniProt Q8WUK0).
T2 construct: endogenous in cells; host or cells: HeLa cell extract
T2 sequence (Q8WUK0 28-201): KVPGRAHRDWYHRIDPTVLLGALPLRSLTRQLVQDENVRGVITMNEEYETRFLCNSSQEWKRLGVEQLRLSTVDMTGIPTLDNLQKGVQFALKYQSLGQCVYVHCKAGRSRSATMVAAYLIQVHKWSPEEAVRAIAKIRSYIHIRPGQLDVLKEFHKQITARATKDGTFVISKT
The following applies: captured protein PTPMT1; HeLa.

Assay [3] concerns the target T3, HeLa cell extract proteins (Homo sapiens, UniProt P48163).
T3 construct: endogenous in cells; host or cells: HeLa cell extract
T3 sequence (P48163 1-572): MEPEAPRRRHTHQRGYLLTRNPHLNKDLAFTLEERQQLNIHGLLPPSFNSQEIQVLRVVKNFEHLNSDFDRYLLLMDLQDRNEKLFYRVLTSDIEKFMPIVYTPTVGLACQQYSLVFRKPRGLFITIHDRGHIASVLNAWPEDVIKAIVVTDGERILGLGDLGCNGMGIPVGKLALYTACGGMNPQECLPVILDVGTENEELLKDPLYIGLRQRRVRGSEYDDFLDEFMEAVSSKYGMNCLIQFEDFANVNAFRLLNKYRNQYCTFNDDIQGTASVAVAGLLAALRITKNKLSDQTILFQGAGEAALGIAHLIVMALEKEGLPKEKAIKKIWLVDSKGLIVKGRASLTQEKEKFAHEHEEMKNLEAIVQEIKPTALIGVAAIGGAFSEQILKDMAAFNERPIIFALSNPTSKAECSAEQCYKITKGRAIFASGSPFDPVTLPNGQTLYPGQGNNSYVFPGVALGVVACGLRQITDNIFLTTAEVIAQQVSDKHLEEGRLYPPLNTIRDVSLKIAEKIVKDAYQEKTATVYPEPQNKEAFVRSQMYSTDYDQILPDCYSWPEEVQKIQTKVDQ

Assay [4] has as its target T4, HeLa cell extract proteins (Homo sapiens, UniProt O75534).
T4 construct: endogenous in cells; host or cells: HeLa cell extract
T4 sequence (O75534 1-798): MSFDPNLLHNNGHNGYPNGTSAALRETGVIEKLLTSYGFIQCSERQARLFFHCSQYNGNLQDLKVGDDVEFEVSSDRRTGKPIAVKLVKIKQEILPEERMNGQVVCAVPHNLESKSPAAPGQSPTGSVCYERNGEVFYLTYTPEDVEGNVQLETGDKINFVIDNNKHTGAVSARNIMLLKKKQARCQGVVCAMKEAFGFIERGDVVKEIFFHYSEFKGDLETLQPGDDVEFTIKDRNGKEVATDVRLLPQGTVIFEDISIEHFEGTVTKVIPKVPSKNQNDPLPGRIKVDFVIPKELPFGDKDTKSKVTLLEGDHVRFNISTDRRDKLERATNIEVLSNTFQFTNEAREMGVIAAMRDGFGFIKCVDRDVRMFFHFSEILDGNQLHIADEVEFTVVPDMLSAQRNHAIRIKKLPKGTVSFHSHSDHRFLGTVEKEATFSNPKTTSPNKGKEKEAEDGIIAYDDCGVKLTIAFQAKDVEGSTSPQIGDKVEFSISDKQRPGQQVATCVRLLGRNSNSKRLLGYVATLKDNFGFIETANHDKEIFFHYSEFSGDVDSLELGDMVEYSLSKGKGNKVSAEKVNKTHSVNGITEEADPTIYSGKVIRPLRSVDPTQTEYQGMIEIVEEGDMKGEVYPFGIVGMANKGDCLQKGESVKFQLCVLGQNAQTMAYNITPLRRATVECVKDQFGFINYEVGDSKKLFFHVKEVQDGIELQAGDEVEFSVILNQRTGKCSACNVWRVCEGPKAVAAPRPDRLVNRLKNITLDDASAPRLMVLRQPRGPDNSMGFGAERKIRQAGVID

Assay [5] has as its target T5, HeLa cell extract proteins (Homo sapiens, UniProt Q6PJG6).
T5 construct: endogenous in cells; host or cells: HeLa cell extract
T5 sequence (Q6PJG6 1-821): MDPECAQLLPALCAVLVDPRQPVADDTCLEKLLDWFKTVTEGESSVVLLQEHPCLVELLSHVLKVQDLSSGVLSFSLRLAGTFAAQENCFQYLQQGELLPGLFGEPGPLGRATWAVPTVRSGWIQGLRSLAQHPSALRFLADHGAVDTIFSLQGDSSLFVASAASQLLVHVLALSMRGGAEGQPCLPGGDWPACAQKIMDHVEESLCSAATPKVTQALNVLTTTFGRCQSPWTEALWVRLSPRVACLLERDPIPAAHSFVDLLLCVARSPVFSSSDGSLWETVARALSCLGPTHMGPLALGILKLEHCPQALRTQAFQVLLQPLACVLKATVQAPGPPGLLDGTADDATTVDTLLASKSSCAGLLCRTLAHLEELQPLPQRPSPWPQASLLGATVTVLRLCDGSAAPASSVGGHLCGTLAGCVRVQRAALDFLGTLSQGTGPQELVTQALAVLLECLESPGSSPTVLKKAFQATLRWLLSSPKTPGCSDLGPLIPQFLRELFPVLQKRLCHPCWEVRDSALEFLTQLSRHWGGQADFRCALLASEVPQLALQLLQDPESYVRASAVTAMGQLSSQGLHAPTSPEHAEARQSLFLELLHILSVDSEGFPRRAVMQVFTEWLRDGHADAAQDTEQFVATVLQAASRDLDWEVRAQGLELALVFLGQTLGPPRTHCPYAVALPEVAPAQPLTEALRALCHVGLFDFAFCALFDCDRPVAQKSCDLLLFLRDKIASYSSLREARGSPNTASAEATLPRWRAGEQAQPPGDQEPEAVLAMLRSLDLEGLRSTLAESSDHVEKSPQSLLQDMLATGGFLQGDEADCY

This is an account of results in article PMC6199744, “Development of Chemical Proteomics for the Folateome and Analysis of the Kinetoplastid Folateome” (ACS Infectious Diseases, 2018).

Where two headings read alike, the source gives them in different places.

With `CCCCCCOc1cccc(Cc2cnc(N)nc2N)c1` [compound 2], the “fold changes relative to vehicle control” value in assay [1] is reported as 2.29; in assay [2], 0.91.
On to `NCCOCCOCC(=O)Nc1nc2ncc(CNc3ccc(C(=O)NC(CCC(=O)O)C(=O)O)cc3)nc2c(=O)[nH]1` (stereo not drawn) [compound 6], for which the “fold changes relative to vehicle control” value in assay [3] (protein ME1, HeLa) was 1.02; in assay [4] (HeLa, protein CSDE1), 1.22; in assay [5] (HeLa, protein C7ORF27) it was 1.02.
As to `CCCCCCOc1ccc(Cc2cnc(N)nc2N)cc1` [compound 1], the “fold changes relative to vehicle control” value in assay [1] is 1.09; in assay [2], 0.88.
`Nc1nc2c(c(=O)[nH]1)N(C=O)C(CNc1ccc(C(=O)N[C@@H](CCC(=O)O)C(=O)O)cc1)CN2` (stereo partly drawn) [LEU, leucovorin]: the “fold changes relative to vehicle control” value in assay [3] (protein ME1, HeLa) turned out to be 0.79; in assay [4] (HeLa, protein CSDE1), 0.96; in assay [5] (HeLa, protein C7ORF27), 0.75.
Turning to `NCCCNc1ccc(C(=O)NC(CCC(=O)O)C(=O)O)cc1` (stereo not drawn) [compound 7], the “fold changes relative to vehicle control” value in assay [3] (protein ME1, HeLa) was determined as 0.86; in assay [4] (HeLa, protein CSDE1), 1.05; in assay [5] (HeLa, protein C7ORF27) it was 0.87.
As to `Nc1nc2[nH]cc(CCc3ccc(C(=O)N[C@@H](CCC(=O)O)C(=O)O)cc3)c2c(=O)[nH]1` [PTX, pemetrexed], the “fold changes relative to vehicle control” value in assay [3] turned out to be 0.84; in assay [4], 1.14; in assay [5], 0.88.
Take `Nc1nc2cccc(-c3ccccc3)c2n1Cc1ccc(Cl)c(Cl)c1` [compound 3]: the figures for the “fold changes relative to vehicle control” value in assay [1] and in assay [2] were 0.82 and 0.93, respectively.
